Measured values from PubChem BioAssay (NCI).
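Exposure lasted 48 hours, with cells grown in 96-well plates and compounds tested at five concentrations. Here, GI50 denotes the concentration required for 50% inhibition of growth. TGI: total growth inhibition.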

Columns and labels:
Experiment in all cases: inhibition of tumour cell growth, NCI panel, 48 h
HL-60(TB) leukemia = system: HL-60(TB) leukemia
RPMI-8226 leukemia = system: RPMI-8226 leukemia
LOX IMVI melanoma = system: LOX IMVI melanoma
SK-MEL-5 melanoma = system: SK-MEL-5 melanoma
MDA-MB-231 breast = system: MDA-MB-231 breast
U251 CNS = system: U251 CNS
BT-549 breast = system: BT-549 breast
UACC-62 melanoma = system: UACC-62 melanoma

SMILES	TGI (HL-60(TB) leukemia) [µM]	TGI (RPMI-8226 leukemia) [µM]	TGI (LOX IMVI melanoma) [µM]	TGI (SK-MEL-5 melanoma) [µM]	TGI (MDA-MB-231 breast) [µM]	TGI (U251 CNS) [µM]	TGI (BT-549 breast) [µM]	TGI (UACC-62 melanoma) [µM]	GI50 (HL-60(TB) leukemia) [µM]	GI50 (RPMI-8226 leukemia) [µM]	GI50 (UACC-62 melanoma) [µM]	GI50 (SK-MEL-5 melanoma) [µM]	GI50 (MDA-MB-231 breast) [µM]	GI50 (U251 CNS) [µM]	GI50 (BT-549 breast) [µM]
Cc1cc(C)cc(Nc2cc(=O)[nH]c(=O)[nH]2)c1	> 100	> 100	> 100	> 100	> 100	> 100	> 100								
Cc1ccc(/C(O)=C/C(=O)C(=O)/C=C(\O)c2ccc(C)cc2C)c(C)c1	0.58	4.59	5.96	3.26	4.83	3.49	3.23	3.38							
O=c1oc2ccccc2c(Nc2ccc3c(c2)Oc2ccccc2O3)c1[N+](=O)[O-]	> 100	> 100	> 100	45.3	38.3	30	64.9	37.1							
C1CNCCNCCN1	> 100	> 100	> 100	> 100	> 100	> 100	> 100	> 100							
O=c1c2ncn(COCCCl)c2n(-c2ccccc2)c(=S)n1-c1ccccc1	> 100	> 100	> 100	> 100	> 100	> 100	> 100	> 100							
CC1=NN2C(=N)/C(=C/c3ccco3)C(=O)N=C2S1	> 100	> 100	> 100	> 100	> 100	> 100	> 100	> 100							
O=C(O)c1ccc(S(=O)(=O)c2ccccc2[N+](=O)[O-])cc1	> 10	> 10	> 10	> 10	> 10	> 10	> 10	> 10							
C=C1C(=O)CC2C(=O)C(C)(O)CC/C=C(\C)C(=O)CC12 (stereo not drawn)	8.87	82.9	35.4	35.6	74.7	> 100	35.5	91.8							
CN(C)c1ccc(C2SCC(=O)N2NS(=O)(=O)c2cccc(C(=O)O)c2)cc1 (stereo not drawn)	> 100	> 100	> 100	> 100	> 100	> 100	> 100	> 100							
O=c1nc2c(c(-c3ccccc3Cl)[nH]1)COC/C2=C\c1ccccc1Cl	> 100	> 100	> 100	> 100	> 100	> 100	> 100	> 100							
O=c1[nH]/c(=C/c2ccc(OCc3ccccc3)cn2)c(=O)[nH]/c1=C/c1ccc(O)cc1	2.87	9.95	1.26	20.8	> 100	> 87.9	8.63	> 100							
CN(C)Cc1cc(C(=O)/C=C/c2ccccc2Cl)cc(CN(C)C)c1O	27.2	56.5	13.5	26.1	24.6	27	20								
COc1ccc(Nc2nc(NS(=O)(=O)c3cc(C)c(Cl)cc3S)n[nH]2)cc1	> 100	> 100	> 100	> 100	> 100	> 100	> 100	> 100							
COc1cc(C2SCC(=O)N2c2ccc(-c3ccc(-n4c(-c5ccccc5)nc5ccccc5c4=O)cc3)cc2)cc(OC)c1OC (stereo not drawn)	> 100	> 100		> 100	> 100	> 100	55.4	> 100							
O=C1c2ccccc2-c2nc(-c3cccc([N+](=O)[O-])c3)nnc21	16.8	> 100		7.65	> 100	> 100	36.7	32							
C/C=C/C(O)P1(=O)N(Cc2ccccc2)[C@@H]2CCCC[C@H]2N1Cc1ccccc1 (stereo partly drawn)	> 25		> 25	> 25	> 25	> 25	> 25	> 25							
COC(=O)C1=CC(=O)OC1(OO)c1ccccc1 (stereo not drawn)	20.4		> 100	> 100	> 100	> 100	> 100	> 100							
C[C@]12CCc3nc(Nc4ccccc4)sc3C1=CC[C@@H]1[C@@H]2CC[C@]2(C)/C(=N/NC(N)=S)CC[C@@H]12	17	6.61		> 100	> 100	> 100	> 100	> 100	3.03	1.61	5.85	5.9	4.43	3.64	3.26
Nc1ccc(N=Nc2ccccc2)cc1	> 100		> 100	> 100	88	> 100	> 100	> 100							
COC(=O)[C@H](Cc1ccccc1)NC(=O)[C@H](Cc1ccccc1)NC(=O)[C@@H]1CCCN1C(=O)N[C@H]1C2C=CC(C2)C1C(=O)N1CCC[C@H]1C(=O)N[C@@H](C)C(=O)N[C@H](C(=O)OC)C(C)C (stereo partly drawn)	> 100		> 100	> 100	> 100	> 100	> 100	> 100							
